Assay results as given in patent US8809376B2, “Indanyloxydihydrobenzofuranylacetic acids” (Boehringer Ingelheim International GmbH, priority 2012, dated 2014).
pEC50: −log10 of the molar value.

Columns and labels:
human GPR40 receptor [1] = molecular target: T1, human GPR40 receptor (Homo sapiens, UniProt O14842); test: Assay I: IP1 accumulation (IPOne assay system) in 1321N1 cells stably expressing human GPR40 receptor; type: cell-based; details: stimulated 1 hour at 37° C., 10% CO2, LiCl 50 mM
T1 sequence (O14842 whole entry): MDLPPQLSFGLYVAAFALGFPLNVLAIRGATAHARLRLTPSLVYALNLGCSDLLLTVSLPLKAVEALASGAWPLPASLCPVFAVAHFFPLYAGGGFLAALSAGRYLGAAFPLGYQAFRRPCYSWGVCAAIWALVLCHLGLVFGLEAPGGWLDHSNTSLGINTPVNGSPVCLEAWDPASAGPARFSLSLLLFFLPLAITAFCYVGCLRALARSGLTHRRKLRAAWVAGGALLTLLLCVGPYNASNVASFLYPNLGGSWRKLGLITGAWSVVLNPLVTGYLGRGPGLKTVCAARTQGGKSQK
Description: IP1 accumulation measurements using the IPOne assay system—1321N1 cells stably expressing human GPR40 receptor (Euroscreen, Belgium) are seeded 24 h before the assay in black clear-bottom collagen-coated 384-well plates in culture medium containing 10% FCS, 1% Na-Pyruvate and 400 μg/mL G418. IP1 is assayed according to the Manufacturer's description (Cisbio Bioassays, France). In brief, the assay is started by substitution of the culture medium by stimulation buffer (Hepes 10 mM, CaCl2 1 mM, MgCl2 0.5 mM, KCl 4.2 mM, NaCl 146 mM and glucose 5.5 mM, pH 7.4) without LiCl. Cells are stimulated for 1 hour at 37° C., 10% CO2 by addition of the compounds that are diluted in stimulation buffer containing LiCl yielding a final LiCl concentration of 50 mM. Assays are stopped by adding HTRF-conjugates (IP1-d2 and Anti-IP1 cryptate Tb) and lysis buffer, provided by the manufacturer. After an incubation time of 1 hour at room temperature plates are measured using an EnVision™, Perkin Elmer. The obtained fluorescence ratios at 665/615 nM are then used to calculate the pEC50 values using GraphPad Prism 5 (Graphpad Software Inc, USA) by interpolation using an IP1 reference curve and subsequent sigmoidal curve fitting allowing for a variable hill slope.

human GPR40 receptor [2] = molecular target: T1, human GPR40 receptor; test: Assay II: IP1 accumulation (IPOne assay system) in 1321N1 cells stably expressing human GPR40 receptor; type: cell-based; details: stimulated 1 h at 37° C., 5% CO2, LiCl 50 mM
Description: IP1 accumulation measurements using the IPOne assay system—1321N1 cells stably expressing human GPR40 receptor (Euroscreen, Belgium) are seeded 24 h before the assay in white 384-well plates in culture medium containing 10% FCS, 1% Na-Pyruvate and 400 μg/mL G418. IP1 is assayed according to the manufacturer's description (Cisbio Bioassays, France). In brief, the assay is started by substitution of the culture medium by stimulation buffer (Hepes 10 mM, CaCl2 1 mM, MgCl2 0.5 mM, KCl 4.2 mM, NaCl 146 mM, glucose 5.5 mM and LiCl 50 mM, pH 7.4). Cells are stimulated for 1 h at 37° C., 5% CO2 by addition of the compounds that are diluted in stimulation buffer containing LiCl. Assays are stopped by adding HTRF-conjugates (IP1-d2 and Anti-IP1 cryptate Tb) and lysis buffer, provided by the manufacturer. After an incubation time of 1 h at room temperature plates are measured using an EnVision™, Perkin Elmer. The obtained fluorescence ratios at 665/615 […] are then used to calculate the pEC50 values using Assay Explorer 3.3 Software (Accelrys, Inc.) by interpolation using an IP1 reference curve and subsequent sigmoidal curve fitting allowing for a variable hill slope.

SMILES	pEC50 (human GPR40 receptor [1])	pEC50 (human GPR40 receptor [2])
COc1cccc(Cc2ccc(F)c3c2CC[C@H]3Oc2ccc3c(c2)OC[C@H]3CC(=O)O)c1 [Example 14, {(S)-6-[(R)-7-Fluoro-4-(3-methoxybenzyl)-indan-1-yloxy]-2,3-dihydrobenzofuran-3-yl}-acetic acid]	8.40	
O=C(O)C[C@@H]1COc2cc(O[C@@H]3CCc4c(Cc5ccccc5)ccc(F)c43)ccc21 [Example 16, {(S)-6-[(R)-4-Benzyl-7-fluoro-indan-1-yloxy]-2,3-dihydrobenzofuran-3-yl}-acetic acid]	8.30	
Cc1ccccc1Cc1c(C#N)ccc2c1CC[C@H]2Oc1ccc2c(c1)OC[C@H]2CC(=O)O [Example 6, {(S)-6-[(R)-5-Cyano-4-(2-methyl-benzyl)-indan-1-yloxy]-2,3-dihydro-benzofuran-3-yl}-acetic acid]	8.10	
COc1ccc(Cc2c(C#N)ccc3c2CC[C@H]3Oc2ccc3c(c2)OC[C@H]3CC(=O)O)cc1 [Example 4, {(S)-6-[(R)-5-Cyano-4-(4-methoxy-benzyl)-indan-1-yloxy]-2,3-dihydro-benzofuran-3-yl}-acetic acid]	8.30	
O=C(O)C[C@@H]1COc2cc(O[C@@H]3CCc4c3ccc(C(F)(F)F)c4Cc3cccc(F)c3)ccc21 [Example 29, {(S)-6-[(R)-4-(3-Fluoro-benzyl)-5-trifluoromethyl-indan-1-yloxy]-2,3-dihydrobenzofuran-3-yl}-acetic acid]		8.52
Cc1ccccc1Cc1c(C(F)(F)F)ccc2c1CC[C@H]2Oc1ccc2c(c1)OC[C@H]2CC(=O)O [Example 35, {(S)-6-[(R)-4-(2-Methyl-benzyl)-5-trifluoromethyl-indan-1-yloxy]-2,3-dihydrobenzofuran-3-yl}-acetic acid]		8.70
N#Cc1cccc(Cc2c(C#N)ccc3c2CC[C@H]3Oc2ccc3c(c2)OC[C@H]3CC(=O)O)c1 [Example 9, {(S)-6-[(R)-5-Cyano-4-(3-cyano-benzyl)-indan-1-yloxy]-2,3-dihydro-benzofuran-3-yl}-acetic acid]	7.54	
O=C(O)C[C@@H]1COc2cc(O[C@@H]3CCc4c3ccc(C(F)(F)F)c4Cc3ccccc3F)ccc21 [Example 31, {(S)-6-[(R)-4-(2-Fluoro-benzyl)-5-trifluoromethyl-indan-1-yloxy]-2,3-dihydrobenzofuran-3-yl}-acetic acid]		8.70
O=C(O)C[C@@H]1COc2cc(O[C@@H]3CCc4c(Cc5cc(F)cc(F)c5)ccc(F)c43)ccc21 [Example 18, {(S)-6-[(R)-4-(3,5-Difluoro-benzyl)-7-fluoro-indan-1-yloxy]-2,3-dihydrobenzofuran-3-yl}-acetic acid]		7.57
COc1ccc(OC)c(Cc2c(C(F)(F)F)ccc3c2CC[C@H]3Oc2ccc3c(c2)OC[C@H]3CC(=O)O)c1 [Example 40, {(S)-6-[(R)-4-(2,5-Dimethoxy-benzyl)-5-trifluoromethyl-indan-1-yloxy]-2,3-dihydrobenzofuran-3-yl}-acetic acid]		8.30
N#Cc1ccc2c(c1Cc1ccc(F)cc1)CC[C@H]2Oc1ccc2c(c1)OC[C@H]2CC(=O)O [Example 23, {(S)-6-[(R)-5-Cyano-4-(4-fluoro-benzyl)-indan-1-yloxy]-2,3-dihydro-benzofuran-3-yl}-acetic acid]		7.96
N#Cc1ccc(Cc2ccc(F)c3c2CC[C@H]3Oc2ccc3c(c2)OC[C@H]3CC(=O)O)cc1 [Example 20, {(S)-6-[(R)-4-(4-Cyano-benzyl)-7-fluoro-indan-1-yloxy]-2,3-dihydrobenzofuran-3-yl}-acetic acid]		6.23
COc1cccc(Cc2c(C(F)(F)F)ccc3c2CC[C@H]3Oc2ccc3c(c2)OC[C@H]3CC(=O)O)c1 [Example 27, {(S)-6-[(R)-4-(3-Methoxy-benzyl)-5-trifluoromethyl-indan-1-yloxy]-2,3-dihydrobenzofuran-3-yl}-acetic acid]		8.30
N#Cc1ccc2c(c1Cc1ccccc1)CC[C@H]2Oc1ccc2c(c1)OC[C@H]2CC(=O)O [Example 1, {(S)-6-[(R)-4-Benzyl-5-cyano-indan-1-yloxy]-2,3-dihydro-benzofuran-3-yl}-acetic acid]	8.30	
N#Cc1ccc2c(c1Cc1ccccc1F)CC[C@H]2Oc1ccc2c(c1)OC[C@H]2CC(=O)O [Example 22, {(S)-6-[(R)-5-Cyano-4-(2-fluoro-benzyl)-indan-1-yloxy]-2,3-dihydro-benzofuran-3-yl}-acetic acid]		8.22
N#Cc1cccc(Cc2c(C(F)(F)F)ccc3c2CC[C@H]3Oc2ccc3c(c2)OC[C@H]3CC(=O)O)c1 [Example 34, {(S)-6-[(R)-4-(3-Cyano-benzyl)-5-trifluoromethyl-indan-1-yloxy]-2,3-dihydrobenzofuran-3-yl}-acetic acid]		8.40
N#Cc1ccc2c(c1Cc1cccc(F)c1F)CC[C@H]2Oc1ccc2c(c1)OC[C@H]2CC(=O)O [Example 32, {(S)-6-[(R)-5-Cyano-4-(2,3-difluoro-benzyl)-indan-1-yloxy]-2,3-dihydro-benzofuran-3-yl}-acetic acid]		8.10
O=C(O)C[C@@H]1COc2cc(O[C@@H]3CCc4c3ccc(C(F)(F)F)c4Cc3ccc(Cl)cc3)ccc21 [Example 37, {(S)-6-[(R)-4-(4-Chloro-benzyl)-5-trifluoromethyl-indan-1-yloxy]-2,3-dihydrobenzofuran-3-yl}-acetic acid]		8.40
O=C(O)C[C@@H]1COc2cc(O[C@@H]3CCc4c(Cc5ccc(F)cc5F)ccc(F)c43)ccc21 [Example 21, {(S)-6-[(R)-4-(2,4-Difluoro-benzyl)-7-fluoro-indan-1-yloxy]-2,3-dihydrobenzofuran-3-yl}-acetic acid]		7.82
O=C(O)C[C@@H]1COc2cc(O[C@@H]3CCc4c3ccc(C(F)(F)F)c4Cc3ccc(F)cc3F)ccc21 [Example 26, {(S)-6-[(R)-4-(2,4-Difluoro-benzyl)-5-trifluoromethyl-indan-1-yloxy]-2,3-dihydrobenzofuran-3-yl}-acetic acid]		8.70
N#Cc1ccc2c(c1Cc1cccc(F)c1)CC[C@H]2Oc1ccc2c(c1)OC[C@H]2CC(=O)O [Example 24, {(S)-6-[(R)-5-Cyano-4-(3-fluoro-benzyl)-indan-1-yloxy]-2,3-dihydro-benzofuran-3-yl}-acetic acid]		7.92
O=C(O)C[C@@H]1COc2cc(O[C@@H]3CCc4c3ccc(C(F)(F)F)c4Cc3ccc(O)cc3)ccc21 [Example 25, {(S)-6-[(R)-4-(4-Hydroxy-benzyl)-5-trifluoromethyl-indan-1-yloxy]-2,3-dihydrobenzofuran-3-yl}-acetic acid]		8.70
COc1ccc(Cc2c(C(F)(F)F)ccc3c2CC[C@H]3Oc2ccc3c(c2)OC[C@H]3CC(=O)O)cc1 [Example 33, {(S)-6-[(R)-4-(4-Methoxy-benzyl)-5-trifluoromethyl-indan-1-yloxy]-2,3-dihydrobenzofuran-3-yl}-acetic acid]		8.70
O=C(O)C[C@@H]1COc2cc(O[C@@H]3CCc4c3ccc(C(F)(F)F)c4Cc3ccc(F)cc3)ccc21 [Example 30, {(S)-6-[(R)-4-(4-Fluoro-benzyl)-5-trifluoromethyl-indan-1-yloxy]-2,3-dihydrobenzofuran-3-yl}-acetic acid]		8.70
CS(=O)(=O)c1ccc(Cc2c(C(F)(F)F)ccc3c2CC[C@H]3Oc2ccc3c(c2)OC[C@H]3CC(=O)O)cc1 [Example 17, {(S)-6-[(R)-4-(4-Methylsulfonyl-benzyl)-5-trifluoromethyl-indan-1-yloxy]-2,3-dihydro-benzofuran-3-yl}-acetic acid]		7.62
O=C(O)C[C@@H]1COc2cc(O[C@@H]3CCc4c(Cc5c(F)cccc5F)ccc(F)c43)ccc21 [Example 19, {(S)-6-[(R)-4-(2,6-Difluoro-benzyl)-7-fluoro-indan-1-yloxy]-2,3-dihydrobenzofuran-3-yl}-acetic acid]		7.64
N#Cc1ccccc1Cc1c(C(F)(F)F)ccc2c1CC[C@H]2Oc1ccc2c(c1)OC[C@H]2CC(=O)O [Example 36, {(S)-6-[(R)-4-(2-Cyano-benzyl)-5-trifluoromethyl-indan-1-yloxy]-2,3-dihydrobenzofuran-3-yl}-acetic acid]		8.70
COc1ccc(Cc2c(C(F)(F)F)ccc3c2CC[C@H]3Oc2ccc3c(c2)OC[C@H]3CC(=O)O)cn1 [Example 38]		9.00
N#Cc1ccc2c(c1Cc1c(F)cccc1F)CC[C@H]2Oc1ccc2c(c1)OC[C@H]2CC(=O)O [Example 28, {(S)-6-[(R)-5-Cyano-4-(2,6-difluoro-benzyl)-indan-1-yloxy]-2,3-dihydro-benzofuran-3-yl}-acetic acid]		8.30
